Experimental data from patent publication US9586999B2, “Methods and compositions related to improving properties of pharmacological agents targeting nervous system” (University of Utah Research Foundation, priority 2006, dated 2017).
“And” between values parts separate entries of the source, which are not always exact repeats. Equal values may be shown once. “Also recorded” adds a separate entry of the source. Read-outs that look alike come from different tables or passages of the source. Square brackets hold non-standard residues; d marks the D form. Ends that are not written are not given here. Ahx = NCCCCCC(=O)O

Legend:
[1] = test system: 6 Hz limbic seizures; assay: 6 Hz limbic (psychomotor) seizure test; type: in vivo, mouse; details: for ED50: Mus musculus, ip; for ED50 / ED50 in the 6 Hz limbic seizure model (in Table 14 in parentheses): i.p.; for effect against 6 Hz (22 mA) limbic seizures: administered into the ventricular space, CF-1 mice; for ED50 in the 6 Hz limbic seizure model (in Table 14 in parentheses): SAR analogs; for % Protection at 1, 2 and 4 hours afforded by a dose of 4 mg/kg, i.p. (result in words): all time points; for % Protection at 30 min (4 mg/kg, i.p.): octreotide and DSIP analogs
Description: Mice not displaying limbic seizures were considered protected.
As mentioned above, the 6 Hz seizure becomes more resistant to block by antiepileptic drugs as the current is increased from 22 mA to 44 mA.

[2] = test system: formalin-induced paw licking; assay: Mouse formalin test of inflammatory pain; type: in vivo; details: for phase II response at the active dose: mouse formalin assay; for Active at: mouse formalin assay of inflammatory pain; for potency in mouse formalin assay: in vivo
Description: An injection of 0.5% formalin is made into the planter region of a mouse right hind paw. This elicits a distinct biphasic behavioral profile characterized by the mouse licking the affected paw. Immediately following the injection the mouse licks the paw for about 10 minutes. This is phase 1 (acute) and is followed by a brief latent period where there is little behavioral activity. A more prolonged period of about 20 to 30 minutes of paw licking ensues which constitutes phase 2 (inflammatory).
Prior to the administration of the active peptide, drug or vehicle each mouse undergoes a 15-minute conditioning period in one of several 6″ tall plexiglass observation tubes (4″ diameter) that are placed in front of a mirror. […] One hour after treatment, formalin was injected sub-dermally (20 μl; 27 gauge needle) into the plantar surface of the right hind foot. The bevel of the needle is placed facing down toward the skin surface. Following the injection of the formalin each animal is observed for first 2 minutes of each 5 minute epoch for a total of 45 minutes. The cumulative length of licking for each 2 minute time period was measured. An animal receiving the requisite volume of vehicle was alternated with each mouse given GAL-BBB2, Gal 1-16, or gabapentin. Animals were euthanized following the conclusion of the experiment.
Area under the curve (AUC) determination was made using the GraphPad Prism Version 3.03. Total AUC is calculated for both the test and control groups for both the acute and inflammatory phases. The AUC for individual animals for each phase is also calculated and converted to percentage of total AUC of control. The average percentages and SEM for both the drug treated and control were calculated and tested for significant difference.

[3] = test system: sound-induced seizures; assay: Frings audiogenic seizure-susceptible mouse model of reflex epilepsy; type: in vivo
Description: (§1) The ability of individual modified peptides to prevent seizures induced by sound in the AGS-susceptible Frings mouse model can be assessed at the time of peak effect (White et al., 1992). For this test, individual mice are placed into a plexiglass cylinder (diameter, 15 cm; height, 18 cm) fitted with an audio transducer (Model AS-ZC; FET Research and Development, Salt Lake City, Utah), and exposed to a sound stimulus of 110 decibels (11 KHz) delivered for 20 seconds. Sound-induced seizures are characterized by wild running followed by loss of righting reflex with forelimb and hindlimb tonic extension. Mice not displaying hindlimb tonic extension are considered protected.
The two modified galanin analogs (GAL-BBB1 and GAL-BBB2) were administered i.p. to a group of Frings audiogenic seizure susceptible mice in a dose of 4 mg/kg. At various times after administration (i.e., 15, 30, 60, 120, and 240 min) each mouse was placed into a cylindrical test chamber fitted with an audio transducer and challenged with a high-intensity sound stimulus (110 dB, 11 KHz for 20 sec). Animals not displaying tonic hind-limb extension were considered protected. […] In a subsequent study, anticonvulsant efficacy was quantitated at the time to peak effect (i.e., 1 h) in a dose-response study.
as §1, with “analogs” for “peptides”
At various times after administration (i.e., 15, 30, 60, 120, and 240 min) each mouse was placed into a cylindrical test chamber fitted with an audio transducer and challenged with a high-intensity sound stimulus (110 dB, 11 KHz for 20 sec).

[4] = stimulus intensity 22 mA, read-out: 22 mA (ED50, 6 Hz model)
[5] = stimulus intensity 32 mA, read-out: 32 mA (ED50, 6 Hz model)
[6] = stimulus intensity 44 mA, read-out: 44 mA (ED50, 6 Hz model)

CCC1(C)CC(=O)NC1=O (centres unmarked) [Ethosuximide, reference compound]
ED50 [1, 4]: 86.9 mg/kg
ED50 [1, 5]: 167 mg/kg
ED50 [1, 6]: 600 mg/kg

Nc1nnc(-c2cccc(Cl)c2Cl)c(N)n1 [Lamotrigine, reference compound]
ED50 [1, 4]: 4.4 mg/kg
ED50 [1, 5]: > 60 mg/kg
ED50 [1, 6]: > 60 mg/kg

O=C1NC(=O)C(c2ccccc2)(c2ccccc2)N1 [Phenytoin, reference compound]
ED50 [1, 4]: 9.4 mg/kg
ED50 [1, 5]: > 60 mg/kg
ED50 [1, 6]: > 60 mg/kg

CCCC(CCC)C(=O)O [Valproic acid, reference compound]
ED50 [1, 4]: 41.5 mg/kg
ED50 [1, 6]: 310 mg/kg

C[C@H](N)C(=O)NCC(=O)N[C@H]1CSSC[C@@H](C(=O)O)NC(=O)[C@H](CO)NC(=O)[C@H]([C@@H](C)O)NC(=O)[C@H](Cc2ccccc2)NC(=O)[C@H]([C@@H](C)O)NC(=O)[C@H](CCCCN)NC(=O)[C@H](Cc2c[nH]c3ccccc23)NC(=O)[C@H](Cc2ccccc2)NC(=O)[C@H](Cc2ccccc2)NC(=O)[C@H](CC(N)=O)NC(=O)[C@H](CCCCN)NC1=O [somatostatin, reference compound]
effect against 6 Hz (22 mA) limbic seizures [1]: effective

(Sar)WTLNSAGY(Ahx)KK(Lys-P)K [NAX 306-4]
% Protection at 2 hours afforded by a dose of 4 mg/kg, i.p. ([1]; 4 mg/kg i.p., 4 mg/kg): 0% and 0%, 0%
% Protection at 4 hours afforded by a dose of 4 mg/kg, i.p. ([1]; 4 mg/kg i.p., 4 mg/kg): 0% and 0%, 0%
ED50 in the 6 Hz limbic seizure model (in Table 14 in parentheses) [1]: (2.95 mg/kg)
activity in the second response phase of the inflammatory pain assay ([2]; 2.95 mg/kg): very active
phase II response at the active dose [2]: (“flat phase II”)
Active at [2]: 2.9 mg/kg
potency in mouse formalin assay [2]: potent

(Sar)WTLNSAGYKK(Lys-P)K [NAX 306-3]
% Protection at 2 hours afforded by a dose of 4 mg/kg, i.p. ([1]; 4 mg/kg i.p.): 25%
% Protection at 4 hours afforded by a dose of 4 mg/kg, i.p. ([1]; 4 mg/kg i.p.): 0%
ED50 in the 6 Hz limbic seizure model (in Table 14 in parentheses) [1]: (2.7 mg/kg)
phase II response at the active dose [2]: (“flat phase II”)
Active at [2]: 2.7 mg/kg
potency in mouse formalin assay [2]: potent

(Sar)WTLNSAGYLLGPDKDK(Lys-P)DK [NAX 1205-2]
% Protection at 2 hours afforded by a dose of 4 mg/kg, i.p. ([1]; 4 mg/kg i.p.): 50%
% Protection at 4 hours afforded by a dose of 4 mg/kg, i.p. ([1]; 4 mg/kg i.p.): 75%
ED50 in the 6 Hz limbic seizure model (in Table 14 in parentheses) [1]: (1.2 mg/kg)

(Sar)WTLNSAGYLLGPHA(Lys-P) [NAX 306-5]
% Protection at 1, 2 and 4 hours afforded by a dose of 4 mg/kg, i.p. (result in words) ([1]; 4 mg/kg i.p.): Not active

(Sar)WTLNSAGYLLGPRR(Lys-P)R [NAX 1205-3]
% Protection at 2 hours afforded by a dose of 4 mg/kg, i.p. ([1]; 4 mg/kg i.p.): 75%
% Protection at 4 hours afforded by a dose of 4 mg/kg, i.p. ([1]; 4 mg/kg i.p.): 0%

(Sar)WTLNSAGYLLKK(Lys-P)K [NAX 1205-5]
% Protection at 2 hours afforded by a dose of 4 mg/kg, i.p. ([1]; 4 mg/kg i.p.): 25%
% Protection at 4 hours afforded by a dose of 4 mg/kg, i.p. ([1]; 4 mg/kg i.p.): 0%

DPhe-Cys-Phe-DTrp-Lys-Thr-Cys-Thr-NH2 [SEQ ID NO: 148, reference compound]
% Protection at 30 min (4 mg/kg, i.p.) ([1]; 4 mg/kg i.p.): 50%

GWTLNSAGYLLGPHAV [Gal(1-16), reference compound]
% Protection at 1, 2 and 4 hours afforded by a dose of 4 mg/kg, i.p. (result in words) ([1]; 4 mg/kg i.p.): Not active
ED50 following i.c.v. administration ([1]; intracerebroventricular, 6 Hz (32 mA)): 1.7 nmol
activity of native fragment in formalin test ([2]; 20 mg/kg i.p.): inactive
anticonvulsant activity of native fragment ([3]; 20 mg/kg i.p.): inactive; also recorded: but not the native GAL(1-16) fragment (20 mg/kg) was effective

Lys-Lys-Lys(palm)-Lys-Ahx-DPhe-Cys-Phe-DTrp-Lys-Thr-Cys-Thr-NH2 [SEQ ID NO: 149]
% Protection at 30 min (4 mg/kg, i.p.) ([1]; 4 mg/kg i.p.): 100%

Sar-Trp-Thr-Leu-Asn-Ser-Ala-Gly-Tyr-Leu-Leu-Gly-Pro-His-(Lys-palm)-Tle-NH2 [GAL-BBB1]
anticonvulsant activity (protection from tonic hind-limb extension) ([3]; 4 mg/kg i.p., 15-240 min, also higher dose of 12 mg/kg): not active at any time point tested

WAGGDFSGE [DSIP, reference compound]
% Protection at 30 min (4 mg/kg, i.p.) ([1]; 4 mg/kg i.p.): 0%
effect against 6 Hz (22 mA) limbic seizures [1]: effective

[Ahx]GGWAGGDFSGE [SEQ ID NO: 142]
% Protection at 30 min (4 mg/kg, i.p.) ([1]; 4 mg/kg i.p.): 50%
% Protection after 2 hours ([1]; 2 hours, 4 mg/kg i.p.): NO: 142) (100% after 2 hours)
